Like-named read-outs stand apart in the source and are kept apart here.
System: cultured human mast cells (CHMC)
Experiment: CHMC low cell density IgE activation: tryptase assay
Format: cell-based
Details: low cell density CHMC, IgE activation
Experimental: Inhibition of degranulation was measured at both low and high cell density by quantifying the release of the granule specific factors tryptase, histamine and hexosaminidase. Inhibition of release and/or synthesis of lipid mediators was assessed by measuring the release of leukotriene LTC4 and inhibition of release and/or synthesis of cytokines was monitored by quantifying TNF-α, IL-6 and IL-13. Tryptase and hexosaminidase were quantified using fluorogenic substrates as described in their respective examples. […] The protocols of the various assays are provided below.
Pellet CHMC cells (980 rpm, 10 min) and resuspend in pre-warmed MT. Add 65 ul of cells to each 96-well plate. Depending on the degranulation activity for each particular CHMC donor, load 1000-1500 cells/well. Mix four times followed by a 1 hr incubation at 37° C. […] Stimulate cells by adding 25 ul of 6× anti-IgE solution to the appropriate plates. Add 25 ul MT to un-stimulated control wells. Mix twice following addition of the anti-IgE. Incubate at 37° C. for 30 minutes. […] Spin plates at 1000 rpm for 10 min to pellet cells. Transfer 25 ul of supernatant to a 96-well black bottom plate and add 100 ul of freshly diluted tryptase substrate solution to each well. Incubate plates at room temperature for 30 min.

[1] = Homo sapiens, Mast cell, tryptase release, 8 pt, read-out: LD Tryptase, CHMC, IgE, 8 pt
[2] = Homo sapiens, Mast cell, tryptase release, 3 pt, read-out: LD Tryptase, CHMC, IgE, 3 pt
[3] = tryptase release, 8 pt, read-out: LD Tryptase, CHMC, IgE, 8 pt
[4] = tryptase release, 3 pt, read-out: LD Tryptase, CHMC, IgE, 3 pt

IC50 [1]	IC50 [2]	Structure (SMILES)	further results
< 10 µM	–	COc1ccc(Nc2ncc(F)c(Nc3ccc4c(c3)NC(=O)C(C)S4)n2)cc1Cl (centres unmarked) [Compound 280]	–
< 10 µM	< 10 µM	O=C1CSc2ccc(Nc3nc(Nc4cccc(O)c4)ncc3F)cc2N1 [Compound 281]	–
< 10 µM	–	COc1cc(Nc2ncc(F)c(Nc3ccc4c(c3)NC(=O)CS4)n2)cc(OC)c1OC [Compound 287]	–
< 10 µM	–	O=C1CSc2ccc(Nc3nc(Nc4ccc5[nH]ncc5c4)ncc3F)cc2N1 [Compound 288]	–
< 10 µM	–	COc1cc(Nc2ncc(F)c(Nc3ccc4c(c3)NC(=O)C(C)(C)S4)n2)cc(OC)c1 [Compound 290]	–
< 10 µM	–	Cc1cc(C)cc(Nc2ncc(F)c(Nc3ccc4c(c3)NC(=O)C(C)(C)S4)n2)c1 [Compound 291]	–
< 10 µM	–	COc1cc(Nc2ncc(F)c(Nc3ccc4c(c3)NC(=O)C(C)(C)S4)n2)cc(OC)c1OC [Compound 292]	–
< 10 µM	< 10 µM	COc1ccc(Nc2ncc(F)c(Nc3ccc4c(c3)NC(=O)C(C)(C)S4(=O)=O)n2)cc1F [Compound 297]	–
< 10 µM	< 10 µM	COc1ccc(Nc2ncc(F)c(Nc3ccc4c(c3)NC(=O)CS4)n2)cc1F [Compound 300, 5-Fluoro-N2-(3-fluoro-4-methoxyphenyl)-N4-(3-oxo-2H,4H-benzo[1,4]thiazin-6-yl)-2,4-pyrimidinediamine]	–
< 10 µM	< 10 µM	Cc1cc(C)cc(Nc2ncc(F)c(Nc3ccc4c(c3)NC(=O)CS4)n2)c1 [Compound 301]	–
< 10 µM	–	Cc1cc(C)cc(Nc2ncc(F)c(Nc3ccc4c(c3)NC(=O)CS4(=O)=O)n2)c1 [Compound 302]	–
< 10 µM	–	COc1cc(Nc2ncc(F)c(Nc3ccc4c(c3)NC(=O)CS4(=O)=O)n2)cc(OC)c1 [Compound 303]	–
< 10 µM	–	COc1ccc(Nc2ncc(F)c(Nc3ccc4c(c3)NC(=O)CS4(=O)=O)n2)cc1Cl [Compound 304]	–
< 10 µM	–	COc1ccc(Nc2ncc(F)c(Nc3ccc4c(c3)NC(=O)CS4(=O)=O)n2)cc1F [Compound 309]	–
< 10 µM	–	COc1cc(Nc2nc(Nc3cc(OC)c(OC)c(OC)c3)ncc2F)cc(C(F)(F)F)c1 [Compound 335]	–

Continued, molecule first:

Structure (SMILES)	IC50 [1]	IC50 [2]	further results
CC1(C)C(=O)Nc2cc(Nc3nc(Nc4cccc(O)c4)ncc3F)ccc2S1(=O)=O [Compound 283, racemic-N4-(2,2-Dimethyl-1,1,3-trioxo-4H-benzo[1,4]thiazin-6-yl)-5-fluoro-N2-[3-hydoxyphenyl]-2,4-pyrimidinediamine]	–	–	IC50 [3]: < 10 µM
COc1ccc(Nc2ncc(F)c(Nc3ccc4c(c3)NC(=O)C(C)(C)S4)n2)cc1Cl [Compound 289]	–	–	IC50 [3]: < 10 µM
CC1(C)Sc2ccc(Nc3nc(Nc4cccc(O)c4)ncc3F)cc2NC1=O [Compound 293]	< 10 µM	–	–
CNC(=O)COc1cccc(Nc2ncc(F)c(Nc3ccc4c(c3)NC(=O)C(C)(C)S4)n2)c1 [Compound 294, N4-(2,2-Dimethyl-3-oxo-4H-benzo[1,4]thiazin-6-yl)-5-fluoro-N2-[3-(N-methylamino)carbonylmethyleneoxyphenyl]-2,4-pyrimidinediamine]	–	–	IC50 [4]: < 10 µM; IC50 [3]: < 10 µM
CC1(C)Sc2ccc(Nc3nc(Nc4ccc5cn[nH]c5c4)ncc3F)cc2NC1=O [Compound 295]	< 10 µM	< 10 µM	–
COc1ccc(Nc2ncc(F)c(Nc3ccc4c(c3)NC(=O)C(C)(C)S4)n2)cc1F [Compound 299]	–	–	IC50 [4]: < 10 µM; IC50 [3]: < 10 µM
CNC(=O)COc1cccc(Nc2ncc(F)c(Nc3ccc4c(c3)NC(=O)CS4(=O)=O)n2)c1 [Compound 305, 5-Fluoro-N2-[3-(N-methylamino)carbonylmethyleneoxyphenyl]-N4-(1,1,3-trioxo-2H,4H-benzo[1,4]thiazin-6-yl)-2,4-pyrimidinediamine]	–	–	IC50 [3]: < 10 µM
COc1cc(Nc2ncc(F)c(Nc3ccc4c(c3)NC(=O)CS4(=O)=O)n2)cc(OC)c1OC [Compound 306, 5-Fluoro-N2-(3,4,5-triimethoxylphenyl)-N4-(1,1,3-trioxo-2H,4H-benzo[1,4]thiazin-6-yl)-2,4-pyrimidinediamine]	–	–	IC50 [3]: < 10 µM
O=C1CS(=O)(=O)c2ccc(Nc3nc(Nc4ccc5cn[nH]c5c4)ncc3F)cc2N1 [Compound 307]	< 10 µM	–	–
O=C1CS(=O)(=O)c2ccc(Nc3nc(Nc4cccc(O)c4)ncc3F)cc2N1 [Compound 308]	< 10 µM	–	–
O=C1CS(=O)(=O)c2ccc(Nc3nc(Nc4ccc5[nH]ncc5c4)ncc3F)cc2N1 [Compound 310]	< 10 µM	–	–
Cn1ncc2ccc(Nc3ncc(F)c(Nc4ccc5c(c4)NC(=O)C(C)(C)S5)n3)cc21 [Compound 311]	< 10 µM	< 10 µM	–
O=C1CSc2ccc(Nc3nc(Cl)ncc3F)cc2N1 [Compound 313, N2-Chloro-5-fluoro-N4-(3-oxo-2H,4H-benzo[1,4]thiazin-6-yl)-4-pyrimidineamine]	–	–	IC50 [4]: < 10 µM
O=C1CS(=O)(=O)c2ccc(Nc3nc(Cl)ncc3F)cc2N1 [Compound 315, N2-Chloro-5-fluoro-N4-(1,1,3-trioxo-2H,4H-benzo[1,4]thiazin-6-yl)-4-pyrimidineamine]	–	–	IC50 [4]: > 10 µM
CC1(C)Sc2ccc(Nc3nc(Cl)ncc3F)cc2NC1=O [Compound 316, N2-Chloro-N4-(2,2,-dimethyl-3-oxo-4H-benzo[1,4]thiazin-6-yl)-5-fluoro-4-pyrimidineamine]	–	–	IC50 [4]: < 10 µM
CC1(C)C(=O)Nc2cc(Nc3nc(Cl)ncc3F)ccc2S1(=O)=O [Compound 318, N2-Chloro-N4-(2,2-dimethyl-1,1,3-trioxo-4H-benzo[1,4]thiazin-6-yl)-5-fluoro-4-pyrimidineamine]	–	–	IC50 [4]: < 10 µM
CC1(C)COc2ccc(Nc3nc(Cl)ncc3F)cc2N1 [Compound 320, N2-Chloro-N4-(3,3-dimethyl-1,4-benzoxazin-6-yl)-5-fluoro-pyrimidineamine]	–	–	IC50 [4]: < 10 µM

Structure (SMILES)	IC50 [1]	IC50 [2]	further results
COc1cc(Nc2ncc(F)c(Nc3cccc(OC(F)(F)F)c3)n2)cc(OC)c1 [Compound 324]	–	< 10 µM	–
Cc1cc(C)cc(Nc2ncc(F)c(Nc3cccc(OC(F)(F)F)c3)n2)c1 [Compound 325, N2-(3,5-Dimethylphenyl)-5-fluoro-N4-(3-trifluoromethoxyphenyl)-2,4-pyrimidinediamine]	–	< 10 µM	–
Fc1cnc(Nc2ccc3cc[nH]c3c2)nc1Nc1cccc(OC(F)(F)F)c1 [Compound 326, 5-Fluoro-N2-(indol-6-yl)-N4-(3-trifluoromethoxyphenyl)-2,4-pyrimidinediamine]	< 10 µM	< 10 µM	–
CNC(=O)COc1cccc(Nc2ncc(F)c(Nc3ccc4ccn(C(=O)NC)c4c3)n2)c1 [Compound 327, 5-Fluoro-N4-[1-(N-methylamino)carbonylindol-6-yl]-N2-[3-(N-methylamino)carbonylmethyleneoxyphenyl]-2,4-pyrimidinediamine]	–	–	IC50 [4]: < 10 µM
COc1cc(Nc2ncc(F)c(Nc3cc(C)cc(C)c3)n2)cc(OC)c1 [Compound 328]	< 10 µM	–	–
COc1cc(Nc2ncc(F)c(Nc3cc(C)cc(C)c3)n2)cc(C(F)(F)F)c1 [Compound 329]	–	< 10 µM	–
Cc1cc(C)cc(N(c2cc(C)cc(C(F)(F)F)c2)c2nc(N)ncc2F)c1 [Compound 330]	–	< 10 µM	–
COc1cc(Nc2nc(Nc3cc(C)cc(C)c3)ncc2F)cc(C(F)(F)F)c1 [Compound 331]	–	< 10 µM	–
COc1cc(Nc2ncc(F)c(Nc3cc(OC)cc(C(F)(F)F)c3)n2)cc(OC)c1 [Compound 332, N2-(3,5-Dimethoxyphenyl)-5-fluoro-N4-(3-methoxy-5-trifluoromethylphenyl)-2,4-pyrimidinediamine]	–	< 10 µM	–
COc1cc(Nc2ncc(F)c(Nc3cc(OC)cc(C(F)(F)F)c3)n2)cc(C(F)(F)F)c1 [Compound 333]	–	< 10 µM	–
COc1cc(Nc2nc(Nc3cc(C)cc(C(F)(F)F)c3)ncc2F)cc(C(F)(F)F)c1 [Compound 334]	–	< 10 µM	–
COc1cc(Nc2nc(Nc3cc(C)c(O)c(Cl)c3)ncc2F)cc(C(F)(F)F)c1 [Compound 336, N2-(3-Chloro-4-hydroxy-5-methylphenyl)-5-fluoro-N4-(3-methoxy-5-trifluoromethylphenyl)-2,4-pyrimidinediamine]	–	< 10 µM	–
COc1cc(Nc2nc(Nc3cc(Cl)cc(Cl)c3)ncc2F)cc(C(F)(F)F)c1 [Compound 337]	–	< 10 µM	–
COc1cc(Nc2nc(Nc3cc(C)c(Cl)c(C)c3)ncc2F)cc(C(F)(F)F)c1 [Compound 339]	–	> 10 µM	–
COc1cc(Nc2ncc(F)c(Nc3cc(OC)cc(OC)c3)n2)cc(OC)c1 [Compound 340]	< 10 µM	< 10 µM	–
Cc1cc(C)cc(Nc2ncc(F)c(Nc3cc(C)cc(C)c3)n2)c1 [Compound 341, N2,N4-Bis (3,5-dimethylphenyl)-5-fluoro-2,4-pyrimidinediamine]	–	–	IC50 (Homo sapiens, Mast cell, tryptase, 3 pt, read-out: LD Tryptase, CHMC, IgE, 3 pt): < 10 µM
CC1(C)Oc2ccc(Nc3nc(Nc4cc(CO)cc(CO)c4)ncc3F)cc2NC1=O [Compound 344, N2-[3,5-Bis (hydoxymethylene)phenyl]-N4-(2,2-dimethyl-3-oxo-4H-benz[1,4]oxazin-6-yl)-5-fluoro-2,4-pyrimidinediamine]	–	–	IC50 (Homo sapiens, Mast cell, tryptase, 8 pt, read-out: LD Tryptase, CHMC, IgE, 8 pt): < 10 µM
